Measured values: patent US6914045B2, “Glycopeptide antibiotics” (Wyeth Holdings Corporation, priority 2001, dated 2005)

What was measured:
Enterococcus sp. = experiment: in vitro antibacterial evaluation, MIC by broth dilution; assay type: cell-based; details: broth dilution, 18 hours at 35° C.
Summary of the method: (§1)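 Inoculum 5×10^5 CFU/mL; concentrations 64 to 0.06 μg/mL; MIC defined as lowest inhibitory level. Conducted by broth dilution under NCCLS guidelines.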

Escherichia coli [1] = experiment: as above; assay type: cell-based; details: 18 hours at 35° C.
Summary of the method: as §1

Staphylococcus sp. = experiment: as above; assay type: cell-based
Summary of the method: as §1

Streptococcus sp. = experiment: as above; assay type: cell-based; details: broth dilution, 18 hours at 35° C.
Summary of the method: as §1

[2] = test system: Staphylococcus aureus-SMITH (GC 4543); experiment: acute lethal infection in mice; assay type: in vivo; details: acute lethal infection, female CD-1 mice, intraperitoneal challenge, intravenous 30 min. after infection, 7 day survival
Description: Methods for in Vivo Antibacterial Evaluation
The therapeutic effects of glycopeptide antibiotics of Formula I are determined against acute lethal infections with S. aureus (strain Smith), a penicillin resistant strain of S. pneumoniae (strain GC 1894), and a vancomycin resistant strain of E. fecalis (strain GC 6189 and GC 2246). Female mice, CD-1 (Charles River Laboratories), 20+/−2 gm, are challenged by intraperitoneal injection of sufficient bacteria (suspended in /trypticase Soy Broth or hog gastric mucin) to kill non-treated controls within 24-48 hr. Antibacterial agents, contained in 0.2 mL of saline or 5% dextrose solution, are administered intravenously 30 min. after infection. Five mice are treated at each dose level. The 7 day survival ratios from 3 separate tests are pooled for calculation of median effective dose (ED50).

Escherichia coli [3] = experiment: in vitro antibacterial evaluation, MIC by broth dilution; assay type: cell-based; details: 18 hours at 35° C.; remark: listed apart in the source
Summary of the method: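 Broth dilution in Muller-Hinton II medium per NCCLS standard M7-A2, with an inoculum of 5×10^5 CFU/mL and antibiotic tested over 64-0.06 μg/mL. MIC was taken as the lowest concentration inhibiting visible growth.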

[4] = Enterococcus faecalis (ATCC 29212)
[5] = Enterococcus faecalis (GC 4552)
[6] = broth dilution, 18 hours at 35° C.
[7] = strain ATCC 29213; broth dilution, 18 hours at 35° C.
[8] = strain GC 1131; broth dilution, 18 hours at 35° C.

COc1ccc(CC2OCC3OC(OC4C(CO)OC(Oc5ccc(CC6NC(=O)C(C(C)c7ccccc7)NC(=O)CNC(=O)C(CO)NC(=O)C(C(O)C7CNC(=N)N7C7OC(CO)C(O)C(O)C7O)NC(=O)C(C(O)C7CNC(=N)N7)NC6=O)cc5)C(O)C4O)C(O)C(O)C3O2)cc1 (stereo not drawn) [Example 103, Cyco[glycyl-β-methylphenylalanyl-O-[4-O-[4,6-O-(4-methoxyphenethylidene)hexopyranosyl]-hexopyranosyl]tyrosyl-3-(2-iminoimidazolidin-4-yl)seryl-3-(3-hexopyranosyl-2-iminoimidazolidin-4-yl)serylseryl]]
0.25 µg/mL: MIC Streptococcus pyogenes (GC 4563) (Streptococcus sp.; Streptococcus pyogenes (GC 4563)) | MIC Streptococcus pyogenes (GC 4563) (Streptococcus sp.; strain GC 4563)
0.12 µg/mL: MIC Streptococcus pneumoniae (ATCC 6301) (Streptococcus sp.; Streptococcus pneumoniae (ATCC 6301)) | MIC Streptococcus pneumoniae (GC 1894) (Streptococcus sp.; Streptococcus pneumoniae (GC 1894)) | MIC Streptococcus pneumoniae (GC 4565) (Streptococcus sp.; Streptococcus pneumoniae (GC 4565)) | MIC Streptococcus pneumoniae (ATCC 6301) (Streptococcus sp.; strain ATCC 6301) | MIC Streptococcus pneumoniae (GC 1894) (Streptococcus sp.; strain GC 1894) | MIC Streptococcus pneumoniae (GC 4565) (Streptococcus sp.; strain GC 4565)
4 µg/mL: MIC Enterococcus faecalis (ATCC 29212) (Enterococcus sp.; [4]) | MIC Enterococcus faecalis (GC 2242) (Enterococcus sp.; Enterococcus faecalis (GC 2242)) | MIC Enterococcus faecalis (GC 6189) (Enterococcus sp.; Enterococcus faecalis (GC 6189)) | MIC Enterococcus faecium (GC 2243) (Enterococcus sp.; Enterococcus faecium (GC 2243)) | MIC Enterococcus faecium (GC 4556) (Enterococcus sp.; Enterococcus faecium (GC 4556)) | MIC Enterococcus faecalis (ATCC 29212) (Enterococcus sp.; strain ATCC 29212) | MIC Enterococcus faecalis (GC 2242) (Enterococcus sp.; strain GC 2242) | MIC Enterococcus faecium (GC 2243) (Enterococcus sp.; strain GC 2243) | MIC Enterococcus faecium (GC 4556) (Enterococcus sp.; strain GC 4556) | MIC Enterococcus faecalis (GC 6189) (Enterococcus sp.; strain GC 6189)
2 µg/mL: MIC Enterococcus faecium (GC 4557) (Enterococcus sp.; Enterococcus faecium (GC 4557)) | MIC Enterococcus faecium (GC 4557) (Enterococcus sp.; strain GC 4557) | MIC Coagulase Negative Staphylococcus (GC 4547) (Staphylococcus sp.; [6]) | MIC Coagulase Negative Staphylococcus (GC 4551) (Staphylococcus sp.; [6]) | MIC Staphylococcus aureus (ATCC 29213) (Staphylococcus sp.; [6]) | MIC Staphylococcus aureus (GC 1131) (Staphylococcus sp.; [6]) | MIC Staphylococcus aureus (GC 3053) (Staphylococcus sp.; [6]) | MIC Staphylococcus aureus (GC 4541) (Staphylococcus sp.; [6]) | MIC Staphylococcus aureus (GC 4542) (Staphylococcus sp.; [6]) | MIC Staphylococcus aureus (GC 4544) (Staphylococcus sp.; [6]) | MIC Coagulase Negative Staphylococcus (GC 4547) (Staphylococcus sp.; broth dilution, 18 hours at 35° C.; strain GC 4547) | MIC Coagulase Negative Staphylococcus (GC 4551) (Staphylococcus sp.; broth dilution, 18 hours at 35° C.; strain GC 4551) | MIC Staphylococcus aureus (ATCC 29213) (Staphylococcus sp.; [7]) | MIC Staphylococcus aureus (GC 1131) (Staphylococcus sp.; [8]) | MIC Staphylococcus aureus (GC 3053) (Staphylococcus sp.; strain GC 3053; broth dilution, 18 hours at 35° C.) | MIC Staphylococcus aureus (GC 4541) (Staphylococcus sp.; strain GC 4541; broth dilution, 18 hours at 35° C.) | MIC Staphylococcus aureus (GC 4542) (Staphylococcus sp.; strain GC 4542; broth dilution, 18 hours at 35° C.) | MIC Staphylococcus aureus (GC 4544) (Staphylococcus sp.; strain GC 4544; broth dilution, 18 hours at 35° C.)
1 µg/mL: MIC Escherichia coli (GC 4560) (Escherichia coli [1]; strain GC 4560) | MIC Coagulase Negative Staphylococcus (GC 4548) (Staphylococcus sp.; [6]) | MIC Coagulase Negative Staphylococcus (GC 4549) (Staphylococcus sp.; [6]) | MIC Coagulase Negative Staphylococcus (GC 6257) (Staphylococcus sp.; [6]) | MIC Staphylococcus aureus (GC 3051) (Staphylococcus sp.; [6]) | MIC Staphylococcus aureus (GC 4545) (Staphylococcus sp.; [6]) | MIC Staphylococcus aureus-SMITH (GC 4543) (Staphylococcus sp.; [6]) | MIC Staphylococcus haemolyticus (GC 4546) (Staphylococcus sp.; [6]) | MIC Staphylococcus haemolyticus (GC 4546) (Staphylococcus sp.; broth dilution, 18 hours at 35° C.; strain GC 4546) | MIC Coagulase Negative Staphylococcus (GC 4548) (Staphylococcus sp.; broth dilution, 18 hours at 35° C.; strain GC 4548) | MIC Coagulase Negative Staphylococcus (GC 4549) (Staphylococcus sp.; broth dilution, 18 hours at 35° C.; strain GC 4549) | MIC Coagulase Negative Staphylococcus (GC 6257) (Staphylococcus sp.; broth dilution, 18 hours at 35° C.; strain GC 6257) | MIC Staphylococcus aureus-SMITH (GC 4543) (Staphylococcus sp.; broth dilution, 18 hours at 35° C.; strain SMITH GC 4543) | MIC Staphylococcus aureus (GC 3051) (Staphylococcus sp.; strain GC 3051; broth dilution, 18 hours at 35° C.) | MIC Staphylococcus aureus (GC 4545) (Staphylococcus sp.; strain GC 4545; broth dilution, 18 hours at 35° C.)
8 µg/mL: MIC Enterococcus avium (GC 4558) (Enterococcus sp.; Enterococcus avium (GC 4558)) | MIC Enterococcus faecalis (GC 2691) (Enterococcus sp.; Enterococcus faecalis (GC 2691)) | MIC Enterococcus faecalis (GC 3059) (Enterococcus sp.; Enterococcus faecalis (GC 3059)) | MIC Enterococcus faecalis (GC 4552) (Enterococcus sp.; [5]) | MIC Enterococcus faecalis (GC 4553) (Enterococcus sp.; Enterococcus faecalis (GC 4553)) | MIC Enterococcus faecalis (GC 4554) (Enterococcus sp.; Enterococcus faecalis (GC 4554)) | MIC Enterococcus faecalis (GC 2691) (Enterococcus sp.; strain GC 2691) | MIC Enterococcus faecalis (GC 3059) (Enterococcus sp.; strain GC 3059) | MIC Enterococcus faecalis (GC 4552) (Enterococcus sp.; strain GC 4552) | MIC Enterococcus faecalis (GC 4553) (Enterococcus sp.; strain GC 4553) | MIC Enterococcus faecalis (GC 4554) (Enterococcus sp.; strain GC 4554) | MIC Enterococcus avium (GC 4558) (Enterococcus sp.; strain GC 4558)
64 µg/mL: MIC Escherichia coli (ATCC 25922) (Escherichia coli [1]; strain ATCC 25922) | MIC Escherichia coli (GC 4559) (Escherichia coli [1]; strain GC 4559)
0.5 µg/mL: MIC Streptococcus agalactiae (GC 4564) (Streptococcus sp.; Streptococcus agalactiae (GC 4564)) | MIC Streptococcus agalactiae (GC 4564) (Streptococcus sp.; strain GC 4564)
0.28 mg/kg: median effective dose (ED50), Staphylococcus aureus-SMITH (GC 4543) [2]

CCCCCC(=O)OCC1OC(OC2C(CO)OC(Oc3ccc(CC4NC(=O)C(C(C)c5ccccc5)NC(=O)CNC(=O)C(CO)NC(=O)C(C(O)C5CNC(=N)N5C5OC(CO)C(O)C(O)C5O)NC(=O)C(C(O)C5CNC(=N)N5)NC4=O)cc3)C(O)C2O)C(O)C(O)C1O (stereo not drawn) [Example 95b, Cyclo[glycyl-β-methylphenylalanyl-O-[4-O-(6-O-hexanoylhexopyranosyl)hexopyranosyl]-tyrosyl-3-(2-iminoimidazolidin-4-yl)seryl-3-(3-hexopyranosyl-2-iminoimidazolidin-4-yl)-serylseryl]]
<0.5 µg/mL: MIC Escherichia coli (GC 4560) (Escherichia coli [3])
1 µg/mL: MIC Coagulase Negative Staphylococcus (GC 4538) (Staphylococcus sp.; [6]) | MIC Coagulase Negative Staphylococcus (GC 4547) (Staphylococcus sp.; [6]) | MIC Staphylococcus aureus (ATCC 29213) (Staphylococcus sp.; [7]) | MIC Staphylococcus aureus (GC 1131) (Staphylococcus sp.; [8]) | MIC Staphylococcus aureus-SMITH (GC 4536) (Staphylococcus sp.; strain GC 4536; broth dilution, 18 hours at 35° C.) | MIC Coagulase Negative Staphylococcus (GC 4538) (Staphylococcus sp.; strain GC 4538; broth dilution, 18 hours at 35° C.) | MIC Coagulase Negative Staphylococcus (GC 4547) (Staphylococcus sp.; strain GC 4547; broth dilution, 18 hours at 35° C.)
64 µg/mL: MIC Escherichia coli (GC 4559) (Escherichia coli [3])
4 mg/kg: median effective dose (ED50), Staphylococcus aureus-SMITH (GC 4543) [2]
8 µg/mL: MIC Enterococcus faecalis (GC 4552) (Enterococcus sp.; [5]) | MIC Enterococcus faecalis (GC 2242) (Enterococcus sp.) | MIC Enterococcus faecalis (GC 4552) (Enterococcus sp.) | MIC Enterococcus faecalis (GC 2242) (Enterococcus sp.; strain GC 2242)
2 µg/mL: MIC Coagulase Negative Staphylococcus (GC 4537) (Staphylococcus sp.; [6]) | MIC Staphylococcus aureus (GC 4535) (Staphylococcus sp.; strain GC 4535; broth dilution, 18 hours at 35° C.) | MIC Coagulase Negative Staphylococcus (GC 4537) (Staphylococcus sp.; strain GC 4537; broth dilution, 18 hours at 35° C.)
4 µg/mL: MIC Enterococcus faecalis (ATCC 29212) (Enterococcus sp.; [4]) | MIC Enterococcus faecalis (ATCC 29212) (Enterococcus sp.)
